The values that follow come from patent US11685741B2, “Fluorescent probes” (University of Massachusetts, priority 2017, dated 2023).

Assay [1] has as its system Caco-2 cells. The experiment in a line: Imaging labile iron pools in hepcidin-stimulated Caco-2 cells. The class given is cell-based, human. As for the experimental part: For kinetic experiment, Caco-2 cells (ATCC) were maintained in Dulbecco's minimal essential medium (DMEM, ATCC) supplemented with 10% fetal bovine serum (FBS, ATCC), 100 U/ml penicillin G, and 100 μg/ml streptomycin at 37° C. in a humid atmosphere of 5% CO2 atmosphere. The culture medium was replaced with a fresh medium every 2-3 days. After being nearly confluent, the cells were used for experiment.
The ability of NIRh-Fret to monitor the changes in cellular labile Fe^2+ stores triggered by hepcidin stimulation, a key iron regulatory hormone produced by the liver which controls iron homeostasis was studied (C. H. Park, et al., J. Biol. Chem., 2001, 276, 7806; G. Nicolas, et al, Blood Cells Mol. Dis., 2002, 29, 327; and T. Ganz, Blood, 2003, 102, 783). […] For Fe^2+ replete conditions, live Caco-2 cells were incubated with 100 μM of ferrous ammonium sulfate (Fe (NH4)2(SO4)2) at 37° C. for 6 h followed by washing with DMEM medium to remove excess Fe^2+ and then 10 μM of NIRh-Fret was added to the culture media and was incubated at 37° C. for 30 min. For hepcidin stimulated condition, Cells was treated first with 100 μM of ferrous ammonium sulfate (Fe (NH4)2(SO4)2) for 1 h, followed by addition of 0.5 μM hepcidin and then incubated for another 5 h.

Assay [2] can be described thus: Metal ion sensing: UV-vis and fluorescence response to Fe2+ and other metal ions. As to the method: Selectivity and spectroscopic properties of the Rh6GD sensor were investigated to evaluate the performance of the fluorescence sensor in solution. The solution of metal ions were prepared from chloride salts of Ni^2+, Fe^3+, Cu^2+, Mn^2+, Hg^2+, Na^+, Ca^2+, Zn^2+, Ag^+, and nitrate salts of Mg^2+, K^+, Co^2+ (1 mM) in deionized water, except for Cu^2+ and Co^2+, which were dissolved in acetonitrile anhydrous. Solution of Cu^+ was freshly prepared by dissolving tetrakis(acetonitrile)copper(I) (Sigma-Aldrich) into double-distilled water. […]
(§1) The color change for Fe^2+ is readily detected visually. […]
The changes in fluorescence spectra of Rh6GD with the addition of different metal ions in H2O/THF (pH 7.32, v/v 4:1) are shown in FIG. 23. When Fe^2+ was added into the solution of Rh6GD, a large fluorescence enhancement at 549 nm was observed, induced by the complexation of Fe^2+.
Moreover, upon the addition of 1 equiv of Fe^2+ into solutions containing one of the other metal ions tested, the fluorescence was activated and the intensity increased to a level similar to that observed in the presence of Fe^2+ only (the black bars in FIG. 24).
Metal ion selectivity and spectroscopic properties of the sensor were investigated to evaluate the performance of the fluorescence sensor Rh101D. […]
as §1

`CCN(CC)c1ccc2c(c1)OC1=C(CCC/C1=C\C=C1\N(C)c3ccccc3C1(C)C)C21c2ccccc2C(=O)N1/N=C\C=C\c1ccc(N(C)C)cc1` (centres unmarked) [NIRh-Fret, (E)-6′-(diethylamino)-2-(((1Z,2E)-3-(4-(dimethylamino)phenyl)allylidene)amino)-4′-(2-((E)-1,3,3-trimethylindolin-2-ylidene)ethylidene)-1′,2′,3′,4′-tetrahydrospiro[isoindoline-1,9′-xanthen]-3-one]: the “fluorescence of cells with sensor only” value in assay [1] (10 μM NIRh-Fret) is recorded as “weak fluorescence”. Further, in assay [1] (100 μM ferrous ammonium sulfate 1 h, then 0.5 μM hepcidin 5 h), the “fluorescence of hepcidin-treated, iron supplemented cells versus Fe^2+ supplementation only” value is “significant increase in fluorescent signals”. Also, in assay [1] (40 min 1 mM Bpy, versus Fe^2+ supplementation only), the “fluorescence after Fe^2+, hepcidin and Bpy” value is given as “decrease in fluorescence signal”.
As for `CCNc1cc2c(cc1C)C1(c3cc(C)c(NCC)cc3O2)c2ccccc2C(=O)N1/N=C/C=C/c1ccc(N(C)C)cc1` [Rh6GD, 2-(((1E,2E)-3-(4-(dimethylamino)phenyl)allylidene)amino)-3′,6′-bis(ethylamino)-2′,7′-dimethylspiro[isoindoline-1,9′-xanthen]-3-one], in assay [2], the “fluorescence enhancement response to Fe^2+” value is given as 3 fold. Besides, the emission intensity enhancement entry in assay [2] (1.0 equiv of Fe^2+, H2O/THF pH 7.32, 549 nm (Rh6GD), 743 nm (NIRh-Fret)) was “around 3 times”.
